Patent publication US20230039987A1, “GEL COMPOSITIONS, SYSTEMS, AND METHODS” (Boston Scientific Scimed, Inc., priority 2021, published 2023)

Test system: NIH 3T3 fibroblasts
Conditions: read-out: IC50 (cytotoxicity); 24 hours, MTS
Experimental: In vitro cytotoxicity of the photoinitiator and the gel were tested using NIH 3T3 fibroblasts cultured in Dulbecco's Modified Eagle's Medium (DMEM) containing 10% fetal bovine serum and 1% penicillin-streptomycin. Cells were seeded in either 96 well plates or 12 well plates at a density of 2,500 cells/well or 25,000 cells/well, respectively, and allowed to adhere overnight. Photoinitiator solutions and the gel solution were sterile filtered using a 0.22 um filter prior to testing in vitro. The gel solution was then gelled within the biosafety cabinet using the 150 W halogen lamp and co-cultured with the cells utilizing a 3 μm pore size transwell insert. Cells were incubated with treatments for 24 hours and then viability was measured using an MTS (3-(4,5-dimethyltriazol-2-yl)-5-(3-carboxymethoxyphenyl)-2-(4-sulfophenyl)-2H-tratrazolium, inner salt) assay (CellTiter 96® AQueous One, Promega). Cell viabilities were normalized to control untreated cells.

**Q.** `O=C(O)c1ccccc1-c1c2cc(Br)c(=O)c(Br)c-2oc2c(Br)c(O)c(Br)cc12` [photoinitiator, Eosin Y] was tested. Which IC50 did it give?
**A.** Its IC50 is ~223 µM.
